Measurements as given in article PMC11641657, “Innovative Approaches to Fucoxanthin Delivery: Characterization and Bioavailability of Solid Lipid Nanoparticles with Eco-Friendly Ingredients and Enteric Coating” (International Journal of Molecular Sciences, 2024).

Tests used:
[1] = Dispersion in ultra-pure water; assay type: physicochemical; conditions: visual
[2] = In vivo pharmacokinetics test, oral dosing, FNOH in plasma by LC-MS/MS; conditions: after oral 10 mg/kg, parent FN
Method: The qualification and quantification of FN and FNOH in plasma samples was conducted using Nexera LC-40 (Shimadzu UPLC, Kyoto, Japan) coupled with AB 6500+ Q-trap mass spectrometry (ABSCIEX, Framinham, MA, USA), which was equipped with electrospray ionization (ESI). The mobile phase was composed of H2O (A: 0.1% formic acid and acetonitrile (B, 0.1% formic acid; A:B = 10:90, v/v) at a flow rate of 0.35 mL/min, and the injection volume was 5 µL. The analysis utilized a Kinetex EVO C18 column (2.1 mm × 100 mm, 2.6 μm) Phenomenex, Torrance, CA, USA), which was maintained at a temperature of 25 °C. The detection of the compounds (Table 6) was performed in positive ion mode under the following conditions: curtain gas at 35.0 L/h, collision gas medium, ion spray voltage at 5000 V, temperature at 400 °C, and ion source gases 1 and 2 both at 55 L/h. […] The data was acquired using AB Analyst 1.6.1 software (ABSCIEX, USA).
They were provided with standard rat chow and water and libitum throughout the study. The rats were acclimatized to the laboratory environment for 7 days prior to the start of the experiment to minimize stress-induced effects. […]
The plasma drug concentration data were fitted using a non-compartmental model, and pharmacokinetic parameters were calculated via Phoenix WinNonlin 8.1 (Certara Corporation, Princeton, NJ, USA).

[3] = In vitro release study (dialysis cassette, SGF then SIF); assay type: physicochemical; conditions: 2 h SGF then SIF, 37 °C
Method: A 3 mL dispersion of solid lipid nanoparticles (SLNs) and fucoxanthin (FN) crystal at a concentration of 1 mg/mL/FN was placed in separate dialysis cassettes (Slide-A-Lyzer, Thermo Fisher Scientific, USA) with a molecular weight cutoff (MWCO) of 20 KDa. Each cassette was then immersed in 120 mL of release medium, consisting of 60% ethanol and 40% SGF, and maintained at 37 °C with a stirring speed of 120 rpm for the first 2 h. An appropriate amount of ethanol is necessary to be added to improve the release of FN in a water-based environment. Two hours later, SGF was replaced with SIF. Samples of 10 µL were periodically withdrawn from the internal compartment of the dialysis cassette, using methanol for extraction and dilution to determine the concentration of fucoxanthin. The remaining FN% was calculated with the following equation:(3) Releasing FX%=(1−Mt/M0)×100% where: M0 is the initial amount of FN, and Mt is the amount of FN calculated at a given incubation time.

[4] = Morphology by TEM and SEM; assay type: physicochemical; conditions: in aqueous medium
Method: The samples were analyzed by means of a transmission electron microscopy (TEM) (Thermo Scientific Talos F200C) operating at 80 KV. For TEM analysis, the samples were placed on copper grids XP-UC300 (Shanghai X-Pivot Optoelectronic Technology Co., Ltd., Shanghai, China). Scanning Electron Microscopy (SEM) was used to determine the structure of the lyophilized FN–SLN. FN–SLN was dispersed in water and spread on a double-sided conducting adhesive tape, then was pasted on a metallic stub. After drying, it was coated ([…]) with gold in a sputter coating unit for […] using an accelerated voltage of 15 KeV.

[5] = In vitro dissolution test with enteric-coated capsule (SGF then SIF); assay type: physicochemical
Method: In this study, 7.8 mg of FN–SLNs and FN crystals were encapsulated in separate enteric-coated capsules. The capsules were placed in a glass bottle containing 2 mL of SGF and maintained at 37 °C, stirring at 120 rpm for the first 2 h. During this period, 100 µL samples were collected at predetermined intervals to assess the dissolution profiles of both formulations. Each time a sample was taken, 100 µL of the corresponding fluid was added to maintain the total volume. […] Following this, the SGF was replaced with 2 mL of SIF, and sampling continued at specified intervals. After each sampling, the collected solutions were centrifuged for 2 min (5000 rpm, 4 °C) to separate any undissolved particles. The supernatants were then extracted using methanol, allowing for the quantification of FN using high-performance liquid chromatography (HPLC).

[6] = set-up: method as in PMID 11694619; conditions: one of the lowest among studied carotenoids; cited from earlier work

## CC(=O)O[C@H]1CC(C)(C)C(=C=C/C(C)=C/C=C/C(C)=C/C=C/C=C(C)/C=C/C=C(\C)C(=O)C[C@@]23O[C@]2(C)C[C@@H](O)CC3(C)C)[C@](C)(O)C1 [FN, Fucoxanthin]
[1]
  Dispersion in water: inadequate
[2]
  Concentration of FN in rat plasma: below the lowest limit of quantitation
[3]
  Highest release rate in SGF and SIF: 2.88%
[4]
  Overall average length of crystals: exceeding 5 µm
[5]
  Release rate throughout the 8-h observation period: consistently low release rate
[6]
  Bioavailability: ~ 50 pmol/mg protein
